Laboratory results taken from US5250570A, “Amidobenzene derivatives, compositions and use” (Imperial Chemical Industries PLC, priority 1990, dated 1993).

Legend:
[1] = tested on: aldose reductase; test: Reduction of sciatic nerve sorbitol levels in streptozotocin-diabetic rats (inhibition of aldose reductase in vivo); design: species or system rat; conditions: 5 daily oral doses of 3 mg/kg
Experimental: Rats are made diabetic (as evidenced by severe glucosuria being present) by dosing with streptozotocin. The animals are then dosed daily with the test compound for one, two or five days. The animals are then sacrificed 2-6 hours after the final dose and the eye lenses and/or sciatic nerves are removed. After a standard work-up procedure the residual sorbitol levels in each tissue are determined by gas liquid chromatography after conversion to the polytrimethylsilyl derivatives. Inhibition of aldose reductase in vivo can then be assessed by comparing the residual sorbitol levels in tissues from the dosed diabetic group of rats with those of an undosed group of diabetic rats and an undosed group of normal rats.
In a variation of the above test diabetic rats are dosed at a fixed daily oral dose for five days and then sacrificed 6 hours after the final dose and the reduction of sciatic nerve sorbitol assessed relative to that in control animals.

[2] = target: T1, aldose reductase (Bos taurus, UniProt P16116); test: In vitro inhibition of partially purified bovine lens aldose reductase (spectrophotometric); format: biochemical; conditions: partially purified aldose reductase from bovine lenses
T1 construct: partially purified aldose reductase is isolated in known manner from bovine lenses; from tissue; host or cells: bovine lens
From the text: Thus, in a standard procedure partially purified aldose reductase is isolated in known manner from bovine lenses. The percentage inhibition of this enzyme's ability in vitro to catalyse the reduction of aldoses to polyhydric alcohols, and particularly to reduce glucose to sorbitol, caused by a test compound can then be determined using standard spectrophotometric methods.

IC50 [2]: 44 nM
SMILES: Cc1cc(NC(=O)COc2ccccc2)cc(C)c1S(=O)(=O)C[N+](=O)[O-] [Example 1, (2,6-dimethyl-4-[2-phenoxyacetamido]phenylsulfonyl)nitromethane]
reduction in sciatic nerve sorbitol levels [1]: 78%
